Results from ChEMBL document CHEMBL1125591, “Synthesis and antidopaminergic activity of some 3-(aminomethyl)tetralones as analogues of butyrophenone” (J Med Chem, 1991).

How the values were obtained:
Mus musculus = species on record: Mus musculus; assay: Compound was evaluated for the effective dose that causes lethality in aggregated mice (group toxicity antagonism); format: organism-based; details: in vivo
D(1A) dopamine receptor = D(1A) dopamine receptor (Rattus norvegicus, UniProt P18901); assay: Compound was evaluated for its affinity (pKi) to inhibit [3H]SCH-23390 binding to the dopamine receptor D1
Rattus norvegicus [1] = species on record: Rattus norvegicus; assay: Compound was evaluated for the pA2 values against Norepinephrine (NE)-induced contraction of isolated rat vas deferens; format: functional; details: read-out: pA2 (converted)
Rattus norvegicus [2] = species on record: Rattus norvegicus; assay: Compound was evaluated for the pA2 values against Dopamine (DA)-induced contraction of isolated rat vas deferens.; format: functional, organism-based; details: read-out: pA2 (converted)
D(2) dopamine receptor = D(2) dopamine receptor (Rattus norvegicus, UniProt P61169); assay: Compound was evaluated for its affinity (pKi) to inhibit [3H]spiperone binding to the dopamine receptor D2
D(2) dopamine receptor, sequence (P61169 whole entry): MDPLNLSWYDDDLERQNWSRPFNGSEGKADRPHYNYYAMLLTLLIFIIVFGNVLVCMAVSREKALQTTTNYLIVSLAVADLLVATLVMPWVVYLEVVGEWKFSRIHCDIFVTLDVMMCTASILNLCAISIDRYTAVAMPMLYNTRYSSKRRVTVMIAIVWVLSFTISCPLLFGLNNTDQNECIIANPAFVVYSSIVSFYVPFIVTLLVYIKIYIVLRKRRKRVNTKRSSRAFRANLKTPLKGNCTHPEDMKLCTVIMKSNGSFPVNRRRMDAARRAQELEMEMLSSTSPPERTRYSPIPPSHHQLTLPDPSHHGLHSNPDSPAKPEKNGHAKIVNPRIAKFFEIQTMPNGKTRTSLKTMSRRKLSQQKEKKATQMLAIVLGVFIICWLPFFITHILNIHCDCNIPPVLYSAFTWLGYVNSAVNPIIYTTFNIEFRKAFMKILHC

D(1A) dopamine receptor, sequence (P18901 whole entry): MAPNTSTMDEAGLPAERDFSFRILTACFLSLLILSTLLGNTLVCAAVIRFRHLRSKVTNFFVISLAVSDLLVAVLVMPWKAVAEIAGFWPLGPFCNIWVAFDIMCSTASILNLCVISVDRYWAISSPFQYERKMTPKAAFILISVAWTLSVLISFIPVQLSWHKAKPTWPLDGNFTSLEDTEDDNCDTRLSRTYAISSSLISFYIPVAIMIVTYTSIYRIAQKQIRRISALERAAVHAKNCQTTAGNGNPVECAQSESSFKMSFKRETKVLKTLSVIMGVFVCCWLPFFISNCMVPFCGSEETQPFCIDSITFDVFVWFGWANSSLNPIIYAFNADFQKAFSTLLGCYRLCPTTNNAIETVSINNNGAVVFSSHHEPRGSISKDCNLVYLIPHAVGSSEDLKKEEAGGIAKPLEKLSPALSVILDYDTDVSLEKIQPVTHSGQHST

Which ED50 (Mus musculus) does the source give for `O=C1CC(CN2CCC(C(=O)c3ccc(F)cc3)CC2)Cc2ccccc21` (centres undefined) here?
The ED50 was 0.055 mg/kg.

And the Ki (D(1A) dopamine receptor)?
The Ki was 324 nM.

And the Kb (Rattus norvegicus [1])?
Its Kb is 83.2 nM.

And the Kb (Rattus norvegicus [2])?
Its Kb is 35.5 nM.

With `COc1ccccc1N1CCN(CC2CC(=O)c3ccccc3C2)CC1` (centres undefined) as the molecule, how does the ED50 (Mus musculus) read?
The ED50 was 0.349 mg/kg.

What about the Ki (D(1A) dopamine receptor) of the same molecule?
The Ki was 1350 nM.

What about the Kb (Rattus norvegicus [1]) of the same molecule?
Its Kb is 174 nM.

And the Kb (Rattus norvegicus [2])?
The Kb was 66.1 nM.

With `O=C(CCCN1CCN(CC2CC(=O)c3ccccc3C2)CC1)c1ccc(F)cc1` (centres undefined) as the molecule, how does the Ki (D(1A) dopamine receptor) read?
Its Ki is 380 nM.

What about the Kb (Rattus norvegicus [1]) of the same molecule?
Its Kb is 178 nM.

What about the Kb (Rattus norvegicus [2]) of the same molecule?
The Kb was 53.7 nM.

With `O=C(CCCN1CCN(CC2CC(=O)c3ccc(F)cc3C2)CC1)c1ccc(F)cc1` (centres undefined) as the molecule, how does the ED50 (Mus musculus) read?
Its ED50 is 0.053 mg/kg.

What about the Ki (D(1A) dopamine receptor) of the same molecule?
The Ki was 912 nM.

What about the Ki (D(2) dopamine receptor) of the same molecule?
Its Ki is 77.6 nM.

`O=C1CC(CN2CCC(O)(c3ccccc3)CC2)Cc2ccccc21` (centres undefined) was tested. Which Ki (D(1A) dopamine receptor) did it give?
Its Ki is 741 nM.

What about the Ki (D(2) dopamine receptor) of the same molecule?
The Ki was 74.1 nM.

For `O=C(CCCN1CCC(O)(c2ccc(Cl)cc2)CC1)c1ccc(F)cc1` [HALOPERIDOL], which ED50 (Mus musculus) is on record?
Its ED50 is 0.02 mg/kg.

And the Kb (Rattus norvegicus [1])?
Its Kb is 102 nM.

What about the Kb (Rattus norvegicus [2]) of the same molecule?
The Kb was 39.8 nM.
